Measurements from the Biogen ADME set (Fang et al. 2023).
Values after ≈ are worked out from the molar mass of the structure shown.

Settings: for aqueous solubility: pH 6.8

| MDR1-MDCK efflux ratio | intrinsic clearance, human liver microsomes | intrinsic clearance, rat liver microsomes | aqueous solubility | fraction unbound, human plasma | fraction unbound, rat plasma | Structure (SMILES) |
| --- | --- | --- | --- | --- | --- | --- |
| 0.768 | 12.4 L/h/kg | 144 L/h/kg | – | – | – | CN1C(=O)[C@H]2CN(CC3=CC[C@H]4C[C@@H]3C4(C)C)C[C@H]2C1=O |
| 2.99 | 9.68 L/h/kg | 114 L/h/kg | 0.00271 mg/mL (≈ 7.14 µM) | – | – | O=C(NC1CCCCCC1)c1ccc(CSc2nc3ccccc3[nH]2)cc1 |
| 2.54 | ≤ 0.284 L/h/kg | ≤ 0.64 L/h/kg | – | – | – | CCc1cc(NS(C)(=O)=O)n(C)n1 |
| 3.28 | 14.8 L/h/kg | 181 L/h/kg | 0.0405 mg/mL (≈ 136 µM) | – | – | CCc1ccc(-c2nccn2Cc2c(C)nn(CC)c2C)o1 |
| 0.817 | – | – | 0.0021 mg/mL (≈ 6.58 µM) | – | – | N#Cc1c(O)nc(SCc2cccc(F)c2F)nc1C1CC1 |
| 17.3 | ≤ 0.284 L/h/kg | ≤ 0.64 L/h/kg | 0.0542 mg/mL (≈ 211 µM) | – | – | Cn1cncc1-c1ncccc1C(=O)N1CCCC1 |
| – | – | – | 0.0228 mg/mL (≈ 82.1 µM) | – | – | N#Cc1nncn1CC(=O)Nc1ccc2ccccc2c1 |
| 3.81 | 2.91 L/h/kg | 34.9 L/h/kg | – | – | – | Nc1nnc(SCCSC2CCCCC2)n1C1CC1 |
| 82.1 | – | – | 0.00018 mg/mL (≈ 0.363 µM) | – | – | Cc1c(NC(=O)c2cc(C(N)=O)nc3cc(F)ccc23)c(C(F)(F)F)nn1Cc1ccc(C#N)cc1 |
| 0.872 | 3.5 L/h/kg | 32.7 L/h/kg | 0.011 mg/mL (≈ 26 µM) | – | – | Cc1c(C(=O)N2CCC(C(=O)Nc3ccc4c(c3)OCO4)CC2)oc2c(F)cccc12 |
| – | ≤ 0.284 L/h/kg | 4.75 L/h/kg | 0.0393 mg/mL (≈ 150 µM) | – | – | CC(C)N1CC[C@H](c2nnc(-c3cncn3C)o2)C1 |
| 19.3 | 3.36 L/h/kg | 36.3 L/h/kg | 0.0544 mg/mL (≈ 157 µM) | – | – | O=C(c1ccccc1-n1cccn1)N1CCN(Cc2cccnc2)CC1 |
| – | 1.42 L/h/kg | 3.89 L/h/kg | 0.0345 mg/mL (≈ 116 µM) | – | – | Cn1cc(NC(=O)c2csc(Cc3ccccc3)n2)cn1 |
| 0.976 | 4.3 L/h/kg | 69.1 L/h/kg | 0.00131 mg/mL (≈ 3.67 µM) | – | – | O=C(CCCc1nnc(-c2ccccc2)o1)Nc1cccc2ccccc12 |
| 24.7 | 11.5 L/h/kg | 87 L/h/kg | 0.0101 mg/mL (≈ 23.5 µM) | 0.0566 | 0.0797 | C=CC(=O)N1CCC(CNc2ncnc(N)c2-c2ccc(Oc3ccccc3)cc2)CC1 |
| 1.33 | 0.688 L/h/kg | 146 L/h/kg | 0.0524 mg/mL (≈ 196 µM) | – | – | N#Cc1cccnc1NCCc1cn2c(n1)CCCC2 |
| 10.2 | 33.4 L/h/kg | 63.3 L/h/kg | 0.051 mg/mL (≈ 131 µM) | – | – | CC(C)c1nccn1-c1cccc([C@@H]2CCCN2C(=O)CCc2ccccc2)n1 |
| 0.574 | 0.441 L/h/kg | 5.08 L/h/kg | 0.0246 mg/mL (≈ 90 µM) | – | – | Nc1nc(N)c2c(Cl)c(Br)ccc2n1 |
| 5.4 | 8.97 L/h/kg | 73.1 L/h/kg | 0.00705 mg/mL (≈ 15.2 µM) | – | – | COc1cc2c(cc1OC)CN(C(=O)C1CCCN(S(=O)(=O)c3ccc(F)cc3)C1)CC2 (stereo not drawn) |
| 0.535 | 13.7 L/h/kg | 203 L/h/kg | 0.0408 mg/mL (≈ 123 µM) | – | – | Cc1ccc(-c2noc(CCC(=O)N3CCCC3(C)C)n2)cc1F |

| MDR1-MDCK efflux ratio | intrinsic clearance, human liver microsomes | intrinsic clearance, rat liver microsomes | aqueous solubility | fraction unbound, human plasma | fraction unbound, rat plasma | Structure (SMILES) |
| --- | --- | --- | --- | --- | --- | --- |
| 41.1 | ≤ 0.284 L/h/kg | 7.17 L/h/kg | 0.0412 mg/mL (≈ 132 µM) | 0.981 | 0.559 | C[C@@H]1CCN(C(=O)CC#N)C[C@@H]1N(C)c1ncnc2[nH]ccc12 |
| 0.531 | 0.779 L/h/kg | 44 L/h/kg | – | – | – | C=CCNc1ncc(-c2cnccn2)c(C2CC2)n1 |
| 1.2 | ≤ 0.284 L/h/kg | 3.72 L/h/kg | – | – | – | CCN1CCN(c2ccc(Nc3ncnc4sccc34)cc2)CC1 |
| 1.29 | 2.44 L/h/kg | 9.05 L/h/kg | 0.0442 mg/mL (≈ 124 µM) | – | – | Fc1ccc(F)c2c(NCc3ccc(N4CCOCC4)nc3)ccnc12 |
| 0.868 | – | – | 0.0002 mg/mL (≈ 0.54 µM) | – | – | O=C(Nc1ccccc1)c1c([O-])n(-c2ccccc2)n[n+]1Cc1ccccc1 |
| 3.36 | ≤ 0.284 L/h/kg | 14.2 L/h/kg | – | – | – | CC(C)Cc1n[nH]c(-c2ccc(N3CCN(C)CC3)cc2)n1 |
| 0.878 | 0.685 L/h/kg | 4.51 L/h/kg | – | – | – | COCCN(C)C(=O)c1ccc(-c2cccc(-c3noc(C)n3)c2)cc1 |
| – | – | – | 0.00224 mg/mL (≈ 6.76 µM) | – | – | C=CCN(c1ccc(C(=O)OC)cc1)S(=O)(=O)c1ccccc1 |
| 0.686 | 0.328 L/h/kg | 15.1 L/h/kg | – | – | – | NC(=O)c1csc(CN2CCc3cc(F)ccc3C2)c1 |
| 2.66 | 1.42 L/h/kg | 44.8 L/h/kg | 0.0481 mg/mL (≈ 154 µM) | – | – | CN(C)c1ccc2c(c1)OCCN2C(=O)NCc1cccnc1 |
| 0.488 | 3.28 L/h/kg | 114 L/h/kg | 0.0326 mg/mL (≈ 131 µM) | – | – | Cc1cnn(C2CN(CC3(O)CCCCC3)C2)c1 |
| 1.1 | 2.71 L/h/kg | 52 L/h/kg | 0.0656 mg/mL (≈ 223 µM) | – | – | O=C(NCc1cccnc1)c1sccc1-c1ccccc1 |
| – | – | – | 0.0161 mg/mL (≈ 45.7 µM) | – | – | O=C(c1cc(Oc2cccc(F)c2)nc2ccccc12)N1CCOCC1 |
| 0.397 | 0.514 L/h/kg | 12.5 L/h/kg | 0.0874 mg/mL (≈ 288 µM) | – | – | CN1CCC(OC(=O)Nc2ccc(Cl)c(Cl)c2)CC1 |
| 150 | ≤ 0.284 L/h/kg | ≤ 0.64 L/h/kg | 0.0537 mg/mL (≈ 139 µM) | 0.393 | 0.375 | COc1cc(F)ccc1-c1ncnc(Nc2cccc(C[S@@](C)(=N)=O)c2)n1 |
| 123 | – | – | – | – | – | COc1cc(Nc2c(C#N)cnc3cc(OCCCN4CCN(C)CC4)c(OC)cc23)c(Cl)cc1Cl |
| 0.791 | ≤ 0.284 L/h/kg | ≤ 0.64 L/h/kg | 0.0483 mg/mL (≈ 237 µM) | – | – | CC(=O)N1CCC(c2ccccn2)CC1 |
| 0.895 | ≤ 0.284 L/h/kg | 3.08 L/h/kg | – | – | – | Cc1ccccc1NC(=O)Cn1nnc(C2CC2)n1 |
| 0.964 | 1.32 L/h/kg | 24 L/h/kg | 0.0382 mg/mL (≈ 115 µM) | – | – | Cc1nccc(-c2cccc(NCC(=O)N(C)c3ccccc3)c2)n1 |
| – | – | – | 0.0173 mg/mL (≈ 63.5 µM) | – | – | CSCc1noc(COc2ccc(F)cc2F)n1 |

| Structure (SMILES) | MDR1-MDCK efflux ratio | intrinsic clearance, human liver microsomes | intrinsic clearance, rat liver microsomes | aqueous solubility | fraction unbound, human plasma | fraction unbound, rat plasma |
| --- | --- | --- | --- | --- | --- | --- |
| Cc1ccc2[nH]c(C3CCN(C)CC3)nc2c1 | 2.88 | 5.3 L/h/kg | 41.1 L/h/kg | 0.0573 mg/mL (≈ 250 µM) | – | – |
